System: E. coli
Assay: Antibacterial test of coating films on glass substrate in accordance with JIS 22801
Type: cell-based
Details: against E. coli
Protocol: The polyphenol derivatives (polyphenol derivatives 1 to 4) in Examples 1 to 4 and the tannic acid in Comparative Example 1 were each applied by the above method onto a 5 cm×5 cm glass substrate at a weight of 1.2 mg/cm 2 to yield a coating film. The glass substrate samples in Examples and Comparative Example each having the coating film formed by the above method were subjected to antibacterial test by a method in accordance with JIS 22801, and antibacterial activity values (against E. coli) were determined.

O=C(OC[C@H]1O[C@@H](OC(=O)c2cc(O)c(O)c(OC(=O)c3cc(O)c(O)c(O)c3)c2)[C@H](OC(=O)c2cc(O)c(O)c(OC(=O)c3cc(O)c(O)c(O)c3)c2)[C@@H](OC(=O)c2cc(O)c(O)c(OC(=O)c3cc(O)c(O)c(O)c3)c2)[C@@H]1OC(=O)c1cc(O)c(O)c(OC(=O)c2cc(O)c(O)c(O)c2)c1)c1cc(O)c(O)c(OC(=O)c2cc(O)c(O)c(O)c2)c1 [compound 1, tannic acid]
Antibacterial test (antibacterial activity value) (coating film 1.2 mg/cm 2 on 5 cm×5 cm glass substrate): >5.8
antibacterial activity (in words) (coating film): antibacterial activity was sufficiently achieved

Reference: patent US20240026086A1, “POLYPHENOL DERIVATIVE AND POLYMER MATERIAL” (TOPPAN INC., priority 2020, published 2024)
